System: normal human lung fibroblasts
Experiment: Ribosomal profiling: translational efficiency in TGFβ-treated fibroblasts
Format: cell-based
Details: TGFβ-treated fibroblasts
Summary of the method: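 Cells lysed on ice after a cold PBS wash containing cycloheximide. Ribosome-protected fragments and total mRNA were prepared with the ARTseq kit and sequenced by RNA-Seq. Reads were trimmed, mapped to the human genome and counted uniquely over coding regions per gene, with low-count genes excluded before differential translational-efficiency analysis.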

Cc1ccc(=O)n(-c2ccccc2)c1 [pirfenidone, 5-methyl-1-phenylpyridin-2-one]
− (− = <0.9): renormalizing the translational profile of RHOBTB3 (ENSG00000164292) | renormalizing the translational profile of HCN1 (ENSG00000164588) | renormalizing the translational profile of RP11-382A20.3.1 (ENSG00000166503) | renormalizing the translational profile of RPL13 (ENSG00000167526) | renormalizing the translational profile of MURC (ENSG00000170681) | renormalizing the translational profile of HTRA3 (ENSG00000170801) | renormalizing the translational profile of PDE7B (ENSG00000171408) | renormalizing the translational profile of LPAR3 (ENSG00000171517) | renormalizing the translational profile of CTPS (ENSG00000171793) | renormalizing the translational profile of QARS (ENSG00000172053) | renormalizing the translational profile of RPL38 (ENSG00000172809) | renormalizing the translational profile of MRPL45 (ENSG00000174100) | renormalizing the translational profile of RPL15 (ENSG00000174748) | renormalizing the translational profile of DES (ENSG00000175084) | renormalizing the translational profile of EIF3F (ENSG00000175390) | renormalizing the translational profile of CLCF1 (ENSG00000175505) | renormalizing the translational profile of C14orf49 (ENSG00000176438) | renormalizing the translational profile of IMPDH2 (ENSG00000178035) | renormalizing the translational profile of LENG9 (ENSG00000182909) | renormalizing the translational profile of C22orf32 (ENSG00000183172) | renormalizing the translational profile of NPW (ENSG00000183971) | renormalizing the translational profile of ROBO2 (ENSG00000185008) | renormalizing the translational profile of PTCH1 (ENSG00000185920) | renormalizing the translational profile of POLR1D (ENSG00000186184) | renormalizing the translational profile of DYNC2H1 (ENSG00000187240) | renormalizing the translational profile of RPL14 (ENSG00000188846) | renormalizing the translational profile of LRRK2 (ENSG00000188906) | renormalizing the translational profile of LAMB3 (ENSG00000196878) | renormalizing the translational profile of PCBP2 (ENSG00000197111) | renormalizing the translational profile of MAP3K5 (ENSG00000197442) | renormalizing the translational profile of LPAR1 (ENSG00000198121) | renormalizing the translational profile of RPL23A (ENSG00000198242) | renormalizing the translational profile of PLN (ENSG00000198523) | renormalizing the translational profile of RPL10A (ENSG00000198755) | renormalizing the translational profile of CES1 (ENSG00000198848) | renormalizing the translational profile of RPL39 (ENSG00000198918) | renormalizing the translational profile of CARD16 (ENSG00000204397) | renormalizing the translational profile of MICA (ENSG00000204520) | renormalizing the translational profile of RPL41 (ENSG00000229117) | renormalizing the translational profile of ARPC1A (ENSG00000241685) | renormalizing the translational profile of EEF1G (ENSG00000254772) | effect in renormalizing the translational profile of the gene (gene RPS2 (ENSG00000140988)) | effect in renormalizing the translational profile of the gene (gene RPS3 (ENSG00000149273)) | effect in renormalizing the translational profile of the gene (gene RPS3A (ENSG00000145425)) | effect in renormalizing the translational profile of the gene (gene RPS4X (ENSG00000198034)) | effect in renormalizing the translational profile of the gene (gene RPS4Y1 (ENSG00000129824)) | effect in renormalizing the translational profile of the gene (gene RPS6 (ENSG00000137154))
+++ (+++ = >2.0): renormalizing the translational profile of CHCHD10 (ENSG00000250479)
35 genes: number of genes whose translational efficiency was uniquely modulated by the compound (duplicate ribosomal profiles)
++ (++ = 1.5 to 2.0): renormalizing the translational profile of CA5B (ENSG00000169239)
+ (+ = 0.9 to 1.5): renormalizing the translational profile of RPL9 (ENSG00000163682) | renormalizing the translational profile of RPL27A (ENSG00000166441) | renormalizing the translational profile of ANKDD1A (ENSG00000166839) | renormalizing the translational profile of EEF2 (ENSG00000167658) | renormalizing the translational profile of RPL4 (ENSG00000174444) | renormalizing the translational profile of AMIGO3 (ENSG00000176020) | renormalizing the translational profile of RPLP2 (ENSG00000177600) | renormalizing the translational profile of DNAJC22 (ENSG00000178401) | renormalizing the translational profile of RPL35A (ENSG00000182899) | renormalizing the translational profile of PDE4B (ENSG00000184588) | renormalizing the translational profile of NACA (ENSG00000196531) | renormalizing the translational profile of RPL37A (ENSG00000197756) | renormalizing the translational profile of RPL12 (ENSG00000197958) | renormalizing the translational profile of GNB2L1 (ENSG00000204628) | renormalizing the translational profile of RPL17 (ENSG00000215472) | effect in renormalizing the translational profile of the gene (gene RPS5 (ENSG00000083845))
